# From patent US7514254B2, “Plant-derived alkaline alpha-galactosidase” (The State of Israel, Ministry of Agriculture & Rural …, priority 1998, dated 2009)
# T1: melon (Cucumis melo) fruit alkaline alpha-galactosidase Form I (Cucumis melo, UniProt Q84NI7)
# T1 sequence (Q84NI7 1-754): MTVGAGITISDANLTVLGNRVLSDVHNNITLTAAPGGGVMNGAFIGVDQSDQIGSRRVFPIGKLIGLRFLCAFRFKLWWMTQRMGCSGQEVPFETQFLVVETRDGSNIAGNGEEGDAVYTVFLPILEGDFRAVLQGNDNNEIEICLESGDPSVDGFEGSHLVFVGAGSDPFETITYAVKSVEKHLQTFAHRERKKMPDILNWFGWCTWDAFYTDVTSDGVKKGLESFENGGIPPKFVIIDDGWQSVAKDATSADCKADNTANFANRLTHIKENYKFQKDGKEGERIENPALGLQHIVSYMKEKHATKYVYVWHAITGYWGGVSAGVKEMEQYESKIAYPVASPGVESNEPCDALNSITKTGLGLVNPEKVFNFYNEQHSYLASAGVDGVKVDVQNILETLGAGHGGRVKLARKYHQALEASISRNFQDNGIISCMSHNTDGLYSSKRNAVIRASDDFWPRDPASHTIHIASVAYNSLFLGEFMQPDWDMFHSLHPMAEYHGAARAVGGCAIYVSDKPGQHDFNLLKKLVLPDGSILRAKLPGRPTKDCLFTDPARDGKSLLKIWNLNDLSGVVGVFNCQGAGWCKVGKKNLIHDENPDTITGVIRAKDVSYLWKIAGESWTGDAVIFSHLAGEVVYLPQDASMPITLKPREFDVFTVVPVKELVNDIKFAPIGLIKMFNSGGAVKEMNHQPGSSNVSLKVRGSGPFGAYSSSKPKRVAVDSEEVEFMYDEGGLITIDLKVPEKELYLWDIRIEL
# T2: melon (Cucumis melo) fruit alkaline alpha-galactosidase Form II (Cucumis melo, UniProt Q84NI6)
# T2 construct: native 102 kDa, denatured 92 kDa; assayed at pH 7.5
# T2 sequence (Q84NI6 1-772): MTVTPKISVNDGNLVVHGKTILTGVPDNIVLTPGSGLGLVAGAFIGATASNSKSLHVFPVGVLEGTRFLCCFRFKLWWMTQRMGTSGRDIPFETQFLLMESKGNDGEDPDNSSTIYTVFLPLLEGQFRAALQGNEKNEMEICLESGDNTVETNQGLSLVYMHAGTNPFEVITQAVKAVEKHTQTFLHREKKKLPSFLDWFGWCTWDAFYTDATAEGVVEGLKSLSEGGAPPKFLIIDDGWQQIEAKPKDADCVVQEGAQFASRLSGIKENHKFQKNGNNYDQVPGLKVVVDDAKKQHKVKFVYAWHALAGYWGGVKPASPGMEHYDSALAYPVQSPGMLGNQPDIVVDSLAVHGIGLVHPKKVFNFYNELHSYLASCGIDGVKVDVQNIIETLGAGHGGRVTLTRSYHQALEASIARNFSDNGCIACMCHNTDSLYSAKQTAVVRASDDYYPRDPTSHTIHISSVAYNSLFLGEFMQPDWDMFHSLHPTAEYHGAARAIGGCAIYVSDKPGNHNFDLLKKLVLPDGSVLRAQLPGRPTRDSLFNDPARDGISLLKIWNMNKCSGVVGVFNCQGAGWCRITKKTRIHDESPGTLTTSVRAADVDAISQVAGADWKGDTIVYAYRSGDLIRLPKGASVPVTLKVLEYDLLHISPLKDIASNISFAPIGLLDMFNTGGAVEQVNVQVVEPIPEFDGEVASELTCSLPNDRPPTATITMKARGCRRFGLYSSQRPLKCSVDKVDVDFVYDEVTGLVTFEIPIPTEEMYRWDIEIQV
# Experiments:
# [1] = tested on: Pseudomonas fluorescens H-601 alpha-galactosidase; settings: Hashimoto et al. 1991; relative Km values; cited from earlier work
# [2] = tested on: Escherichia coli K12 alpha-galactosidase; settings: Schmid and Schmitt 1976; cited from earlier work
# [3] = tested on: melon (Cucumis melo) fruit acid form alpha-galactosidase; assay: Substrate kinetics (Lineweaver-Burk) of acid alpha-galactosidase; format: biochemical, muskmelon (Cucumis melo L. cv C-8); settings: for Km / Vmax: Lineweaver-Burk
# Procedure: For routine analysis and monitoring the activity in the purification steps, alpha-galactosidase was assayed as described by Smart and Pharr (“Characterization of alpha-galactosidase from cucumber leaves”, Plant Physiology, 66:731-734, 1980), using p-nitrophenyl alpha-galactoside (pNPG) as substrate. […] The reaction was terminated after 10 min by adding 1 ml of 5% (w/v) Na2CO3 and activity expressed as nmol nitrophenol per min as measured at 410 nm. […] The assay was started by adding 50 μl enzyme preparation at 35 C and terminated after 10 to 20 min by 2 min boiling. […] For the partial purification of the acid form of alpha-galactosidase the fractions active at pH 5.5 were pooled and concentrated by reverse dialysis against solid sucrose. […] The active fractions were then desalted by dialysis against buffer A for 12 hours with two changes of the buffer. This enzyme fraction was used for the characterization of the acidic form of alpha-galactosidase. […] The substrate specificity of the alpha-galactosidases was tested with pNPG, stachyose, raffinose, melibiose or guar gum (Sigma).
# [4] = target: T1, melon (Cucumis melo) fruit alkaline alpha-galactosidase Form I; assay: Substrate kinetics (Lineweaver-Burk) of alkaline alpha-galactosidase Form I; settings: for Vmax: Lineweaver-Burk
# Procedure: (§1) For routine analysis and monitoring the activity in the purification steps, alpha-galactosidase was assayed as described by Smart and Pharr (“Characterization of alpha-galactosidase from cucumber leaves”, Plant Physiology, 66:731-734, 1980), using p-nitrophenyl alpha-galactoside (pNPG) as substrate. Reaction was initiated by adding 50 μl enzyme aliquot to either 200 μl 100 mM pH 5.5 McIlvaine buffer or 100 mM pH 7.5 HEPES buffer, containing 5 mM pNPG at 35 C. The reaction was terminated after 10 min by adding 1 ml of 5% (w/v) Na2CO3 and activity expressed as nmol nitrophenol per min as measured at 410 nm. […] The assay was started by adding 50 μl enzyme preparation at 35 C and terminated after 10 to 20 min by 2 min boiling.
# (§2) The fractions from the DEAE-Sepharose chromatography which were active at pH 7.5 were pooled and dialyzed against buffer A for 12 h prior to loading onto an HPLC ion exchange chromatography column (Mono-Q HR 5/5, Pharmacia, Uppsala, Sweden), previously equilibrated with buffer A. Bound proteins were eluted with a linear gradient of 0.1 to 0.45 M NaCl and the active fractions were detected using pNPG as substrate at pH 7.5 as described above. […] For the further purification of Form II the active fractions of the peak II were chromatographed on hydrophobic interaction chromatography. The fractions were pooled, brought to 1 M (NH4)2SO4 and loaded on to a hydrophobic interaction column (phenyl-Sepharose CL-4B, 0.5×12 cm, Pharmacia, Uppsala, Sweden) previously equilibrated with buffer A containing 1 M (NH4)2SO4. The protein was eluted with a reverse stepwise gradient from 1 to 0 M (NH4)2SO4 with 50 mM intervals in buffer A. Fractions containing the activity peak were collected and dialyzed for 12 h against buffer A and the dialysate was concentrated by reverse dialysis against solid sucrose. The enzyme, partially purified by hydrophobic interaction chromatography, was used for the characterization of Form II. The active fractions from the hydrophobic interaction column were further purified. Active fractions were separated electrophoretically using a Mini Prep Cell (Bio-Rad Laboratories, Hercules, Calif.) for discontinuous native-PAGE with 7% polyacrylamide, according to manufacturer's instructions. Fractions (0.25 ml/fraction) were assayed at pH 7.5 with pNPG as substrate for the activity. The active fractions were pooled, concentrated by Vivaspin Concentrator (Vivascience LTD, Lincoln, England), and run in a 8% SDS-PAGE. Proteins in the SDS-PAGE were identified using Coomassie Blue staining.
# Therefore, the active fractions from the Mono-Q column were used for the characterization of Form I. In addition, the Form I enzyme was further purified, as described in the following section.
# [5] = target: T2, melon (Cucumis melo) fruit alkaline alpha-galactosidase Form II; assay: Substrate kinetics (Lineweaver-Burk) of alkaline alpha-galactosidase Form II; format: biochemical, muskmelon (Cucumis melo L. cv C-8); settings: for Vmax: Lineweaver-Burk
# Procedure: as §1, §2
# [6] = substrate: OC[C@H]1O[C@H](OC[C@H]2OC(O)[C@H](O)[C@@H](O)[C@@H]2O)[C@H](O)[C@@H](O)[C@H]1O; assay: purified protein, by the assay type; settings: other: alkaline Form I; Lineweaver-Burk; 35.0 °C
# [7] = substrate: OC[C@H]1O[C@H](OC[C@H]2O[C@H](OC[C@H]3O[C@H](O[C@]4(CO)O[C@H](CO)[C@@H](O)[C@@H]4O)[C@H](O)[C@@H](O)[C@@H]3O)[C@H](O)[C@@H](O)[C@H]2O)[C@H](O)[C@@H](O)[C@H]1O; assay: purified protein, by the assay type; settings: other: alkaline Form I; Lineweaver-Burk; 35.0 °C
# [8] = substrate: O=[N+]([O-])c1ccc(O[C@H]2O[C@H](CO)[C@H](O)[C@H](O)[C@H]2O)cc1; assay: purified protein, by the assay type; settings: other: alkaline Form I; Lineweaver-Burk; 35.0 °C
# [9] = substrate: OC[C@H]1O[C@H](OC[C@H]2O[C@H](O[C@]3(CO)O[C@H](CO)[C@@H](O)[C@@H]3O)[C@H](O)[C@@H](O)[C@@H]2O)[C@H](O)[C@@H](O)[C@H]1O; assay: purified protein, by the assay type; settings: other: alkaline Form I; Lineweaver-Burk; 35.0 °C
# [10] = raffinose versus melibiose; literature; cited from earlier work
molecule,measurement,setting,value
"OC[C@H]1O[C@H](OC[C@H]2OC(O)[C@H](O)[C@@H](O)[C@@H]2O)[C@H](O)[C@@H](O)[C@H]1O (stereo partly drawn) [Melibiose, 6-O-alpha-D-galactopyranosyl-D-glucose]",Km,[1],3200 µM
same,Km,[2],3200 µM
same,Vmax/Km ratio,[3],0.27
same,Km,[3],700 µM
same,Vmax,[3],0.19 μmol mg^−1 protein min^−1
same,Vmax,[4],0.3 μmol mg^−1 protein min^−1
same,Vmax,[5],0.23 μmol mg^−1 protein min^−1
"O=[N+]([O-])c1ccc(O[C@H]2O[C@H](CO)[C@H](O)[C@H](O)[C@H]2O)cc1 [pNPG, p-nitrophenyl alpha-galactopyranoside]",Vmax/Km ratio,[3],5.00
same,Km,[3],300 µM
same,Vmax,[3],1.5 μmol mg^−1 protein min^−1
same,pNPG concentration above which enzyme is inhibited (substrate inhibition),[3]; pNPG as substrate,above 5 mM
same,Vmax/Km ratio,[4],1.17
same,Vmax,[4],1.4 μmol mg^−1 protein min^−1
same,Vmax/Km ratio,[5],2.63
same,Vmax,[5],7.9 μmol mg^−1 protein min^−1
melon (Cucumis melo) fruit alkaline alpha-galactosidase Form I (Cucumis melo) (protein) MTVGAGITISDANLTVLGNRVLSDVHNNITLTAAPGGGVMNGAFIGVDQSDQIGSRRVFPIGKLIGLRFLCAFRFKLWWMTQRMGCSGQEVPFETQFLVVETRDGSNIAGNGEEGDAVYTVFLPILEGDFRAVLQGNDNNEIEICLESGDPSVDGFEGSHLVFVGAGSDPFETITYAVKSVEKHLQTFAHRERKKMPDILNWFGWCTWDAFYTDVTSDGVKKGLESFENGGIPPKFVIIDDGWQSVAKDATSADCKADNTANFANRLTHIKENYKFQKDGKEGERIENPALGLQHIVSYMKEKHATKYVYVWHAITGYWGGVSAGVKEMEQYESKIAYPVASPGVESNEPCDALNSITKTGLGLVNPEKVFNFYNEQHSYLASAGVDGVKVDVQNILETLGAGHGGRVKLARKYHQALEASISRNFQDNGIISCMSHNTDGLYSSKRNAVIRASDDFWPRDPASHTIHIASVAYNSLFLGEFMQPDWDMFHSLHPMAEYHGAARAVGGCAIYVSDKPGQHDFNLLKKLVLPDGSILRAKLPGRPTKDCLFTDPARDGKSLLKIWNLNDLSGVVGVFNCQGAGWCKVGKKNLIHDENPDTITGVIRAKDVSYLWKIAGESWTGDAVIFSHLAGEVVYLPQDASMPITLKPREFDVFTVVPVKELVNDIKFAPIGLIKMFNSGGAVKEMNHQPGSSNVSLKVRGSGPFGAYSSSKPKRVAVDSEEVEFMYDEGGLITIDLKVPEKELYLWDIRIEL,Km,[6],20000 µM
same,Vmax,[6],0.3 µmol/min
same,Km,[7],4000 µM
same,Vmax,[7],0.24 µmol/min
same,Km,[8],1200 µM
same,Km,[9],1500 µM
same,Vmax,[9],0.56 µmol/min
"alpha-galactosidase from Escherichia coli K12: alpha-galactosidase of Schmid and Schmitt, tetrameric protein (protein, UniProt P06720 1-451, looked up) Alpha-galactosidase: MMSAPKITFIGAGSTIFVKNILGDVFHREALKTAHIALMDIDPTRLEESHIVVRKLMDSAGASGKITCHTQQKEALEDADFVVVAFQIGGYEPCTVTDFEVCKRHGLEQTIADTLGPGGIMRALRTIPHLWQICEDMTEVCPDATMLNYVNPMAMNTWAMYARYPHIKQVGLCHSVQGTAEELARDLNIDPATLRYRCAGINHMAFYLELERKTADGSYVNLYPELLAAYEAGQAPKPNIHGNTRCQNIVRYEMFKKLGYFVTESSEHFAEYTPWFIKPGREDLIERYKVPLDEYPKRCVEQLANWHKELEEYKKASRIDIKPSREYASTIMNAIWTGEPSVIYGNVRNDGLIDNLPQGCCVEVACLVDANGIQPTKVGTLPSHLAALMQTNINVQTLLTEAILTENRDRVYHAAMMDPHTAAVLGIDEIYALVDDLIAAHGDWLPGWLHR",activity with raffinose as compared to melibiose,[10],about 4%
